Like-named read-outs stand apart in the source and are kept apart here.
Legend:
HASM cells = HASM cells tested individually on separate device
Source text: (§1) For the experiments for which data is presented in FIG. 13A through FIG. 13C, three distinct cell types were chosen to test for the ability of the instrument to discriminate cell type based on response to FCCP. To generate the data set comparing widely varying cell types, donor-derived primary human aortic smooth muscle (HASM) cells (HASMC; Gibco cat# C0075C), human cervical cancer cells (HeLa cells; ATCC catalogue number CRM CCL 2) and a mouse-derived […] cell line (MMM cells; ATCC catalogue number J774A.1) were selected for the study.
(§2) FIG. 13A through FIG. 13C are average background-subtracted temporal dose-responses curves for each type of cell line tested individually on separate devices. FIG. 13A is set of dose-response curves for HASM cells, FIG. 13B is a set of dose-response curves for HeLa cells, and FIG. 13C is a set of dose-response curves for MMM cells. For the data shown in FIG. 14A through FIG. 14C, a mixture of the cells were exposed to 100 μM FCCP and their responses recorded in order to understand whether or not the different cell types could be identified by their response to FCCP. FIG. 14A illustrates composite temporal dose-response curves for selected cells in a mixture of different cell types in which the cells were subjected to FCCP. FIG. 14B is an electroscopic image of the experiment of FIG. 14A taken at a time corresponding to frame 40 (2.7 seconds), in which squares within the cells indicate the pixels that were sampled for the data of FIG. 14A. FIG. 14C is the electroscopic image of FIG. 14B for which the squares within the cells in […] have removed to provide a clear image of the cells.
(§3) The sensor array devices used in experiments from which data for FIG. 13A though FIG. 14C was generated was a Chip 2 device of FIG. 3, selective for sensing hydrogen ion, and included a microwell array.

HeLa cells = HeLa cells tested individually on separate device
Source text: as §1, §2, §3

MMM cells = MMM cells tested individually on separate device
Source text: as §1, §2, §3

U-2OS cells = details: series of concentration jumps
Source text: FIG. 12A illustrates averaged background-subtracted temporal dose-response curves for U-2OS cells treated with FCCP. FIG. 12B illustrates averaged background-subtracted temporal dose-response curves for U-2OS cells pretreated with a nutrient solution containing oligomycin before being treated with FCCP.
Both Chip 1 and Chip 2 devices were ISFET devices selective for sensing hydrogen ion, and included a microwell array. […] The U-2OS cells were resuspended at 1×10^6 cells per mL and plated onto chips for overnight incubation in a cell culture incubator to allow the cells to adhere to the prepared surface of the chip. To test for dose-dependence of the FCCP treatment, cells were exposed to a series of concentration jumps during the experiment as indicated in FIGS. 12A and FIG. 12B. In FIG. 12A, experiments were carried out in the absence of oligomycin, and in 12B, the FCCP dose-response curve was generated in the presence of oligomycin.
The data in FIG. 12A and FIG. 12B are composed of averaged cellular responses from samples tested with FCCP.

HEPG2 cells = details: 100 μM; seen for some cells (CHEPG1, CHEPG2), not all (CHEPG3)
Method: The HEPG2 cells were resuspended at 1×10^6 cells per mL and plated onto chips for overnight incubation in a cell culture incubator to allow the cells to adhere to the prepared surface of the chip.

[1] = tested on: voltage-gated calcium ion channels; assay: ChemFET sensor array: 30 mM KCl depolarizing stimulus in presence of calcium channel blocker, control vs transfected U-2OS cells; assay type: cell-based; details: 10 μM, U-2OS control cells vs U-2OS transfected with voltage-gated calcium channel alpha, beta and alpha-2-delta subunits
Source text: FIG. 9A illustrates temporal response curves for U-2OS cells (C1 and C2) and U-2OS cells transfected with voltage-gated calcium channel alpha, beta and alpha-2-delta subunits (C3 and C4). The temporal response curves presented in FIG. 9A represent data collected over an area of interest for the U-2OS cells in comparison to transfected U-2OS cells, in which the impact of cell response for each type of cell treated with the calcium ion channel blocker verapamil was monitored through a cycle of an initial state of resting potential, followed by conditions for depolarization of membrane potential, and return to resting potential.
Briefly, the sensor array device surface was soaked for 30 minutes with 70% ethanol in water, then rinsed with PBS before adding a solution of 0.1% poly-D-lysine, which was allowed to sit for two hours. The device was then rinsed twice with 200 μL of a cell culture medium, for example, McCoy's 5A modified medium with 10% fetal calf serum. After rinsing with the cell culture medium, the devices were ready for plating with a cell suspension.
Preparation of transfected cells was done using a cell suspension of 1×10^6 cells per mL. Mammalianized BacMam gene delivery particles encoding a mixture of voltage-gated calcium ion channel alpha, beta and alpha-2-delta subunits was added to the cell suspension to reconstitute functional channels. […]

Row | SMILES | temporal response to FCCP (HASM cells) | temporal response to FCCP (HeLa cells) | temporal response to FCCP (MMM cells) | averaged cellular temporal response (U-2OS cells; absence of oligomycin) | averaged cellular temporal response (U-2OS cells; presence of oligomycin (pretreatment)) | cellular response observed during application (electroscopic image) (HEPG2 cells) | activity of blocker on temporal response to depolarizing stimulus [1]
1 | N#CC(C#N)=NNc1ccc(OC(F)(F)F)cc1 [FCCP, carbonyl cyanide-4-(trifluoromethoxy)phenylhydrazone] | distinct kinetic and amplitude response | distinct kinetic and amplitude response | distinct kinetic and amplitude response | dose-dependent FCCP responses | dose-dependent FCCP responses | efflux of cellular contents | 
2 | COc1ccc(CCN(C)CCCC(C#N)(c2ccc(OC)c(OC)c2)C(C)C)cc1OC (stereo not shown) [verapamil] |  |  |  |  |  |  | selective activity of a blocker on cultures that express the target protein
